For one assay, the target named is T1, p110α/p85α (Homo sapiens, UniProt P42336).
T1 construct: Full-length p110α was expressed in a complex with full-length p85α (for biochemistry and HDX-MS); 6xHis followed by TEV protease site (N); made in house; host or cells: Spodoptera frugiperda Sf9 (baculovirus co-infection; plasmids OP831 and OP809)
Briefly: HDX-MS of full-length p110α/p85α. To be noted: wild-type p110α/p85α. The text has this: The inventors used hydrogen-deuterium exchange mass spectrometry (HDX-MS) which allows the investigation of compound binding sites and conformational changes using soluble, native proteins, and which has been key to unravel the molecular mechanisms of physiological activation of class IA PI3Ks. Class IA PI3K activation occurs through de-inhibition of the auto-inhibited p85/p110 complex, via the release of inhibitory interactions between p85 and p110, upon binding of the complex to bis-phosphorylated motifs in membrane-resident receptors or cytosolic adaptors. […]
In total, three biological replicates, i.e., three separate protein preparations, each with exchange experiments were carried out in triplicate were conducted. […] A “blank” sample of protein dilution buffer with quench was run between samples, and carry-over of peptides was routinely monitored. […] Data was analysed using Protein Lynx Global Server (Waters) and DynamX (Waters). […] Data quality, experiment design, and reporting of data meets the criteria as determined by the HDX-MS community (Masson, G. R. et al. Nat Methods 16, 595-602 (2019)). […]

For another assay, the system named is isolated rat hearts. Briefly: Langendorff ex vivo perfused rat heart model of IRI. To be noted: 5 μM.
For the next assay, the target named is PI3Kα (Homo sapiens, UniProt P42336). Briefly: pAKT S473 ELISA in A549 cells (PI3Kα activation). The format is cell-based. Also noted: endogenous in cells; host or cells: A549. To be noted: A549 cells. The protocol:
EC50 values were determined by quantifying phosphorylation on S473 residues of Akt in A549 human adenocarcinoma cells by ELISA (enzyme linked immunoadsorbent assay, R&D Systems, DYC887BE). A549 cells were seeded into 96-well plates (50,000 cells/well) in DMEM supplemented with 10% foetal bovine serum and 1% penicillin-streptomyocin. Following 24 h in culture cells were starved for 24 h in serum-free DMEM before 15 minute treatment with a concentration response curve of compounds. Experimental compounds were diluted in DMSO into […] 1:3 concentration response curves in polypropylene V-bottom plates (SLS MIC9050). Concentration response curves were diluted to a 3× stock in serum-free DMEM. Standard 8-point concentration response curves were performed at 50, 16.7, 5.6, 1.9, 0.6, 0.2, 0.07, 0.02 μM and serum-free DMEM containing 0.5% DMSO was used as a negative control. […] A549 cells were seeded at 50,000 cells per well in 96-well plates in DMEM (10% FBS+1% P/S). The next day cells were washed once with PBS before addition of serum-free DMEM for 24 h. On the day of treatment cells, were incubated in fresh serum-free DMEM prior to treatment. Compounds solubilised to 10 mM in DMSO were diluted 1:3 in an 8-point concentration response curve in DMSO. Concentration response curves were diluted in serum-free DMEM by transfer into intermediate plates using a BRAVO liquid handler (Agilent). Intermediate plates were then used to treat cell plates using the BRAVO liquid handler. Compound concentration response curves had atop concentration of 50 μM and a final well concentration of 0.5% DMSO. Cell plates were treated for 15 min at 37° C., 5% CO2 before being washed with ice-cold PBS and lysed in lysis buffer 6 (R&D Systems #895561) and freezing at −80° C. Levels of pAKT-S473 were determined using the phospho-AKT (S473) pan-specific Duoset IC ELISA (R&D Systems #DYC887BE) in 96-well white high-binding plates (Corning #3922) according to manufacturer's instructions. Endpoint luminescence was measured using a Sense (Hidex) platereader. […] Data were transformed and EC50 data were determined by variable slope (4 parameters) non-linear regression using Prism 7 (Graphpad).
(In general: An ELISA detects its analyte on a solid surface through an enzyme-linked reagent.)

One compound from patent publication US20250263404A1, “AMINOPYRIDINES AS ACTIVATORS OF PI3 KINASE” (UCL Business Ltd, priority 2021, published 2025) can be followed below.

The EC50 is the midpoint of the concentration-response curve. One may read the Emax as the maximal effect, on the per cent scale that the assay sets.

Chain of PI3Kα (P42336 whole entry): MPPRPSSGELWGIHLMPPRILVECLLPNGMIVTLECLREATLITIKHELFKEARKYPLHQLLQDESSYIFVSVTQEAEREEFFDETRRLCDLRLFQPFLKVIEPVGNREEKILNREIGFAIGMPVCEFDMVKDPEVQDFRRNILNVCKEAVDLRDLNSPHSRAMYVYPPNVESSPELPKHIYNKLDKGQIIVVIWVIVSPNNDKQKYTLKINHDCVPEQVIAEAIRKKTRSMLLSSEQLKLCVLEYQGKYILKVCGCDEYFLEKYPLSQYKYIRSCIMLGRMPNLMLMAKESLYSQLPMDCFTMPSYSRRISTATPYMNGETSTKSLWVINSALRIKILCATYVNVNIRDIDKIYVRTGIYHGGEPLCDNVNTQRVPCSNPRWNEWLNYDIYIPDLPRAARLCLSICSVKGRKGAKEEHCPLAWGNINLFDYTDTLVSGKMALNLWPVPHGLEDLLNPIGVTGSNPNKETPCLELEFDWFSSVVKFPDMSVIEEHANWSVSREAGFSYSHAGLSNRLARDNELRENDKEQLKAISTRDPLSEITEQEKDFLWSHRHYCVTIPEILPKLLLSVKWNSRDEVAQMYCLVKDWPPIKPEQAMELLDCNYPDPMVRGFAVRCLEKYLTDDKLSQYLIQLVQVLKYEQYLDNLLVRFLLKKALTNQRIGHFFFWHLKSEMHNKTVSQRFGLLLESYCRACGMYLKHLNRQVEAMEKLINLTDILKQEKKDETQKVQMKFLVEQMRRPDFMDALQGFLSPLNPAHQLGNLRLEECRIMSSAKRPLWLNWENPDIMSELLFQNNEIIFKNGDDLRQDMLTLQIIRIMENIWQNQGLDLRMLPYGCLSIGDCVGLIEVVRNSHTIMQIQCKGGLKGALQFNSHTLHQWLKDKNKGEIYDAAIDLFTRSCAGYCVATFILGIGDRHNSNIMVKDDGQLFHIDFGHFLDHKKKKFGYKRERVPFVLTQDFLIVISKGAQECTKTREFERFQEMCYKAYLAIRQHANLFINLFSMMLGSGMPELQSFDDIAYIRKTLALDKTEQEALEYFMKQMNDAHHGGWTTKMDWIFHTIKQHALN
Chain of PI3Kα (P27986 whole entry partner): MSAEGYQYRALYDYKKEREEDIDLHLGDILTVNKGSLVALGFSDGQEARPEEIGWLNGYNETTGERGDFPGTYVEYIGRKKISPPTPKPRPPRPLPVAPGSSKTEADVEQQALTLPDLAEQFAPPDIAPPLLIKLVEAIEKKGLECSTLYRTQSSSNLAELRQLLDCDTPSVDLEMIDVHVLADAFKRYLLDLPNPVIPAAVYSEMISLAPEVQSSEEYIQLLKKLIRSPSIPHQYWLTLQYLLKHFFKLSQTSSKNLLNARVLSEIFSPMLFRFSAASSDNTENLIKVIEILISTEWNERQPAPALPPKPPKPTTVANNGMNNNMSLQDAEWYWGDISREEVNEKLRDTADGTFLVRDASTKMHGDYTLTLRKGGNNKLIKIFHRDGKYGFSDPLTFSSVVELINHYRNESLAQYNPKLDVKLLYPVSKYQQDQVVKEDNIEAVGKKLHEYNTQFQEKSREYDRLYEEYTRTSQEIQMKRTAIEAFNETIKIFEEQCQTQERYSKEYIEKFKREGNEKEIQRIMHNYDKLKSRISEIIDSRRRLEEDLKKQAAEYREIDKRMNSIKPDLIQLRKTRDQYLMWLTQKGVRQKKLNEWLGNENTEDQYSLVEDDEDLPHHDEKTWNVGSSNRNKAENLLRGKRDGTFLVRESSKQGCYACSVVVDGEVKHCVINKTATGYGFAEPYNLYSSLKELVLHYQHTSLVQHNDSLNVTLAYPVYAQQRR
T1 sequence (P42336 whole entry): as the sequence (P42336 whole entry) above
T1 sequence (P27986 whole entry partner): as the sequence (P27986 whole entry partner) above

As to `CCN1CCN(c2ccc(Nc3cc(Nc4cccc5c4N(C(C)=O)CC5)ccn3)cc2)CC1` [Example 1938], at p110α/p85α, the “Movement of the adapter-binding domain” value is recorded as “−/?”. In the assay with isolated rat hearts, the “pAKT S473 in perfused rat hearts” value was “increase in generation of pAKTS473”. Also, the “tissue protection from IRI” value in the assay with isolated rat hearts (administration during first 15 min of reperfusion) is reported as “substantial tissue protection from IRI”. The EC50 at PI3Kα (EC50 for induction of pAKT, 15 min treatment) is 2 to 4 µM. For the same compound, the Emax on PI3Kα (read-out: AKT phosphorylation, % of Emax of 1 μM insulin, doses of 5-10 μM 1938) was around 200%.
